Experimental findings from PubChem BioAssay AID330 (DTP/NCI, 2004) are described below.

Several values for one entry are separate records, joined by “and”; a condition that tells them apart may be missing. Identical values can stand only once. Toxic doses and inconclusive results are not listed.

The test system of the experiment is P388 leukemia ip, CD2F1 mice, survival T/C. Nature of the experiment: NCI In Vivo Anticancer Drug Screen. Data for tumor model P388 Leukemia (intraperitoneal) in CD2F1 (CDF1) mice. To be noted: endpoint: median survival time, higher = longer survival. Summed up: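 Mice carrying the transplanted tumor received test compound or vehicle. Survival was recorded in each group, and the value is the treated-group measurement divided by that of the vehicle-treated control group.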

[1] abbreviates: dose: 50.0 mg/kg/injection, schedule: Q01DX005 (ip), vehicle: saline with Tween-80.
[2] abbreviates: dose: 100.0 mg/kg/injection, schedule: Q01DX005 (ip), vehicle: saline with Tween-80.
[3] abbreviates: dose: 60.0 mg/kg/injection, schedule: Q01DX005 (ip), vehicle: saline with Tween-80.
The mark [4] stands for this setting: dose: 120.0 mg/kg/injection, schedule: Q01DX005 (ip), vehicle: saline with Tween-80.
[5] abbreviates: dose: 100.0 mg/kg/injection, schedule: Q01DX009 (ip), vehicle: saline with Tween-80.
The mark [6] stands for this setting: dose: 200.0 mg/kg/injection, schedule: Q01DX009 (ip), vehicle: saline with Tween-80.

Regarding `O=NN(CCCl)C(=O)Nc1c[nH]c(=O)[nH]c1=O`, the T/C (dose: 0.01 mg/kg/injection, schedule: Q04DX003 (ip), vehicle: saline with Tween-80) is 95 % of control; the T/C (dose: 0.02 mg/kg/injection, schedule: Q04DX003 (ip), vehicle: saline with Tween-80) was 100 % of control; the T/C (dose: 0.04 mg/kg/injection, schedule: Q04DX003 (ip), vehicle: saline with Tween-80) is 100 % of control; the T/C (dose: 0.5 mg/kg/injection, schedule: Q04DX003 (ip), vehicle: saline) was 150 % of control; the T/C (dose: 1.0 mg/kg/injection, schedule: Q04DX003 (ip), vehicle: saline) is 159 % of control; the T/C (dose: 2.0 mg/kg/injection, schedule: Q04DX003 (ip), vehicle: saline) is 172 % of control. The T/C reads like this: (dose: 3.0 mg/kg/injection, schedule: Q04DX003 (ip), vehicle: saline with Tween-80) 195 % of control; (dose: 3.13 mg/kg/injection, schedule: Q01DX009 (ip), vehicle: saline with Tween-80) 227 % of control; (dose: 6.0 mg/kg/injection, schedule: Q04DX003 (ip), vehicle: saline with Tween-80) 213 % of control; (dose: 6.25 mg/kg/injection, schedule: Q01DX009 (ip), vehicle: saline with Tween-80) 227 % of control; (dose: 8.0 mg/kg/injection, schedule: Q04DX003 (ip), vehicle: saline with Tween-80) 191 % of control; (dose: 12.0 mg/kg/injection, schedule: Q04DX003 (ip), vehicle: saline with Tween-80) 166 % of control. Also, the T/C by setting is: (dose: 12.5 mg/kg/injection, schedule: Q01DX009 (ip), vehicle: saline with Tween-80) 109 % of control; (dose: 12.5 mg/kg/injection, schedule: Q04DX003 (ip), vehicle: saline with Tween-80) 219 % of control; (dose: 18.0 mg/kg/injection, schedule: Q04DX003 (ip), vehicle: saline with Tween-80) 191 % of control; (dose: 30.0 mg/kg/injection, schedule: Q01DX009 (ip), vehicle: saline with Tween-80) 100 % of control.
Regarding `C=C1c2cccc(O)c2C(O)=C2C(=O)[C@]3(O)C(O)=C(C(N)=O)C(=O)[C@@H](N(C)C)[C@@H]3[C@@H](O)[C@H]12`, the T/C is 105 % of control (dose: 21.6 mg/kg/injection, schedule: Q01DX005 (ip), vehicle: Klucel (hydroxypropylcellulose) (HPC)); 105 % of control and 115 % of control (dose: 25.0 mg/kg/injection, schedule: Q01DX005 (ip), vehicle: Klucel (hydroxypropylcellulose) (HPC)); 99 % of control and 106 % of control (dose: 36.0 mg/kg/injection, schedule: Q01DX005 (ip), vehicle: Klucel (hydroxypropylcellulose) (HPC)); 102 % of control and 97 % of control (dose: 60.0 mg/kg/injection, schedule: Q01DX005 (ip), vehicle: Klucel (hydroxypropylcellulose) (HPC)); 115 % of control (dose: 166.66 mg/kg/injection, schedule: Q01DX005 (ip), vehicle: Klucel (hydroxypropylcellulose) (HPC)); 112 % of control (dose: 166.67 mg/kg/injection, schedule: Q01DX005 (ip), vehicle: Klucel (hydroxypropylcellulose) (HPC)). Besides, the T/C (dose: 400.0 mg/kg/injection, schedule: Q01DX005 (ip), vehicle: Klucel (hydroxypropylcellulose) (HPC)) is 87 % of control.
In the case of `c1ccc([C@H]2N[C@@H]2c2ccccn2)cc1`, the T/C is, setting by setting: under setting [1], 106 % of control; under setting [2], 93 % of control.
Take `CC1(O)OC(COc2ccc(Cl)cc2)COC1O` (stereo not drawn): the T/C runs as follows: under setting [3], 112 % of control; under setting [4], 103 % of control.
Consider `COc1ccc(C2CC(=O)C=C3c4ccc(OC)cc4CCC32)cc1` (stereo not drawn), for which the T/C was 91 % of control (dose: 50.0 mg/kg/injection, schedule: Q01DX009 (ip), vehicle: Klucel (hydroxypropylcellulose) (HPC)) and 91 % of control (dose: 100.0 mg/kg/injection, schedule: Q01DX009 (ip), vehicle: Klucel (hydroxypropylcellulose) (HPC)).
`O=S(=O)(c1ccccc1)[C@H]1[C@@H]2O[C@@H]2C[C@@H]1O`: the T/C reads like this: (dose: 60.0 mg/kg/injection, schedule: Q01DX005 (ip), vehicle: saline) 104 % of control; (dose: 120.0 mg/kg/injection, schedule: Q01DX005 (ip), vehicle: saline) 103 % of control; (dose: 240.0 mg/kg/injection, schedule: Q01DX005 (ip), vehicle: saline) 98 % of control.
As for `C=CCN(CC=C)CCN1CCN(CCCN2c3ccccc3Sc3ccc(C(F)(F)F)cc32)CC1`, the T/C (dose: 12.5 mg/kg/injection, schedule: Q04DX003 (ip), vehicle: saline) is 101 % of control and 103 % of control; the T/C (dose: 25.0 mg/kg/injection, schedule: Q04DX003 (ip), vehicle: saline) is 111 % of control and 112 % of control; the T/C (dose: 50.0 mg/kg/injection, schedule: Q04DX003 (ip), vehicle: saline) is 104 % of control and 107 % of control; the T/C (dose: 100.0 mg/kg/injection, schedule: Q04DX003 (ip), vehicle: saline) was 100 % of control and 102 % of control.
In the case of `CCCCOP(=O)(Nc1ccccc1)OCCCC`, the T/C runs as follows: under setting [5], 110 % of control; under setting [6], 112 % of control; (dose: 400.0 mg/kg/injection, schedule: Q01DX009 (ip), vehicle: saline with Tween-80) 110 % of control.
For `COc1ccc(S(=O)(=O)N/N=C/CN(C)C)cc1`, the T/C was 101 % of control (dose: 25.0 mg/kg/injection, schedule: Q01DX005 (ip), vehicle: saline with Tween-80); 101 % of control under setting [1]; 101 % of control under setting [2]; 99 % of control (dose: 200.0 mg/kg/injection, schedule: Q01DX005 (ip), vehicle: saline with Tween-80).
On to `COC(=O)c1cc(OC)c2cccnc2c1Nc1ccccc1`, for which the T/C was 102 % of control under setting [3]; 102 % of control under setting [4]; 100 % of control (dose: 240.0 mg/kg/injection, schedule: Q01DX005 (ip), vehicle: saline with Tween-80).
With `COc1ccc(C(=O)CC[N+](C)(C)C)cc1`, the T/C reads like this: (dose: 12.5 mg/kg/injection, schedule: Q01DX009 (ip), vehicle: saline) 106 % of control; (dose: 25.0 mg/kg/injection, schedule: Q01DX009 (ip), vehicle: saline) 101 % of control.
Take `CC(C)(C)c1cc(Cc2ccccc2)c(O)c(C(C)(C)C)c1`: the T/C was 100 % of control (dose: 50.0 mg/kg/injection, schedule: Q01DX005 (ip), vehicle: distilled water + alcohol); 103 % of control (dose: 100.0 mg/kg/injection, schedule: Q01DX005 (ip), vehicle: distilled water + alcohol); 111 % of control (dose: 200.0 mg/kg/injection, schedule: Q01DX005 (ip), vehicle: distilled water + alcohol).
As to `CC(=O)c1c(OCC(O)CN2CCN(C)CC2)cccc1OCC(O)CN1CCN(C)CC1` (stereo not drawn), the T/C runs as follows: (dose: 6.25 mg/kg/injection, schedule: Q01DX005 (ip), vehicle: saline) 105 % of control; (dose: 12.5 mg/kg/injection, schedule: Q01DX005 (ip), vehicle: saline) 101 % of control; (dose: 25.0 mg/kg/injection, schedule: Q01DX005 (ip), vehicle: saline) 105 % of control.
On to `CCCn1c2nc(=O)[nH]c(=O)c-2[n+]([O-])c2ccccc21`, for which the T/C is 97 % of control (dose: 6.25 mg/kg/injection, schedule: Q01DX001 (ip), vehicle: saline with Tween-80) and 98 % of control (dose: 12.5 mg/kg/injection, schedule: Q01DX001 (ip), vehicle: saline with Tween-80).
Regarding `CC(=O)C(O)N1C(=O)C=CC1=O` (stereo not drawn), the T/C is, setting by setting: (dose: 2.5 mg/kg/injection, schedule: Q01DX009 (ip), vehicle: saline with Tween-80) 86 % of control; (dose: 2.5 mg/kg/injection, schedule: Q04DX003 (ip), vehicle: saline) 100 % of control; (dose: 5.0 mg/kg/injection, schedule: Q04DX003 (ip), vehicle: saline) 95 % of control; (dose: 10.0 mg/kg/injection, schedule: Q04DX003 (ip), vehicle: saline) 100 % of control.
Regarding `O=C(O)C(S)C(S)C(=O)O` (stereo not drawn), the T/C is 102 % of control (dose: 12.5 mg/kg/injection, schedule: Q01DX009 (ip), vehicle: other); 108 % of control (dose: 25.0 mg/kg/injection, schedule: Q01DX009 (ip), vehicle: other); 103 % of control (dose: 50.0 mg/kg/injection, schedule: Q01DX009 (ip), vehicle: other); 94 % of control (dose: 100.0 mg/kg/injection, schedule: Q01DX009 (ip), vehicle: other); 90 % of control (dose: 200.0 mg/kg/injection, schedule: Q01DX009 (ip), vehicle: other).
As for `CC(C)Nc1nc(N)nc(N)n1`, the T/C is, setting by setting: (dose: 50.0 mg/kg/injection, schedule: Q01DX009 (ip), vehicle: saline with Tween-80) 100 % of control; under setting [5], 91 % of control; under setting [6], 96 % of control.
